Numbering of substitutions follows the chain as printed. Calls of active or inactive are those of the source. The rule behind the calls is not given here.
Assays:
Assay type in all cases: cell-based
[1] = molecular target: Transient receptor potential cation channel subfamily M member 7 (Homo sapiens) (UniProt Q96QT4); assay: Induction of TRPM7 S-nitrosylation in HEK cells assessed as increase in Ca2+ level from extracellular space at 30 uM; conditions: HEK293
[2] = molecular target: T1, Short transient receptor potential channel 5 (Homo sapiens) (UniProt Q9UL62); assay: Induction of S-nitrosylation of TRPC5 in HEK cells assessed as increase in Ca2+ level from extracellular space at 30 uM in presence of ascorbic acid; conditions: HEK293
T1 sequence (whole entry): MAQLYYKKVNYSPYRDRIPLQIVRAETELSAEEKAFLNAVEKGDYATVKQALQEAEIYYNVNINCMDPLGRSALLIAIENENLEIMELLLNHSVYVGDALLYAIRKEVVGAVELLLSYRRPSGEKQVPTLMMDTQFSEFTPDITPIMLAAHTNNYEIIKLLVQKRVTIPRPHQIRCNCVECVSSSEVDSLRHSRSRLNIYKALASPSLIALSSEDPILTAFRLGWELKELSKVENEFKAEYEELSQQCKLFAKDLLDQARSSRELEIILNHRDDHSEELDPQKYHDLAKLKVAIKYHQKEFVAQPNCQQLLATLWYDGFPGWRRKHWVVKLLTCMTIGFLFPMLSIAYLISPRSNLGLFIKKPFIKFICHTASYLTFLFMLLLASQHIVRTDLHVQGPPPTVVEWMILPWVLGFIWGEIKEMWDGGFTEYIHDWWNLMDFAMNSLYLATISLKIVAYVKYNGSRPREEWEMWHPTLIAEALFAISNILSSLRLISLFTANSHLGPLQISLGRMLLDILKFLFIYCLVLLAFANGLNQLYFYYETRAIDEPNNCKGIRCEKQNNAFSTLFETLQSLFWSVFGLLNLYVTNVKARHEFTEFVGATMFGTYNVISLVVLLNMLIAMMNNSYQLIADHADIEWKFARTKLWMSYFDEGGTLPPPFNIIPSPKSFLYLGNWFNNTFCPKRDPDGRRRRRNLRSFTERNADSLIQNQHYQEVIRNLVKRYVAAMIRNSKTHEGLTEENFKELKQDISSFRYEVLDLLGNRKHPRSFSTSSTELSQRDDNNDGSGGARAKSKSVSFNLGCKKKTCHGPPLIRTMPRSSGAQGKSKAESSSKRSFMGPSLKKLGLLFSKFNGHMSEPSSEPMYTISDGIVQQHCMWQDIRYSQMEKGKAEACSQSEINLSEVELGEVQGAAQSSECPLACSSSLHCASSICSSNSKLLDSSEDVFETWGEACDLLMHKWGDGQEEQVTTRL

HEK293 = assay: Induction of rat TRPV1 Cys616 mutant S-nitrosylation expressed in HEK cells assessed as increase in Ca2+ level from extracellular space at 0.1 to 1 mM
[3] = test system: T2, Short transient receptor potential channel 5 (Homo sapiens), Q9UL62 [C553S]; assay: Decrease in TRPC5 C553S mutant S-nitrosylation in HEK cells assessed as inhibition of incorporation of DTNB-2Bio at 300 uM relative to control; conditions: HEK293
T2 sequence (whole entry): T1 sequence (whole entry) with C553S

[4] = molecular target: T1, Short transient receptor potential channel 5 (Homo sapiens); assay: Induction of S-nitrosylation of TRPC5 in HEK cells assessed as increase in Ca2+ level from extracellular space at 10 uM; conditions: HEK293

Chain of Transient receptor potential cation channel subfamily M member 7 (Homo sapiens) (Q96QT4 whole entry): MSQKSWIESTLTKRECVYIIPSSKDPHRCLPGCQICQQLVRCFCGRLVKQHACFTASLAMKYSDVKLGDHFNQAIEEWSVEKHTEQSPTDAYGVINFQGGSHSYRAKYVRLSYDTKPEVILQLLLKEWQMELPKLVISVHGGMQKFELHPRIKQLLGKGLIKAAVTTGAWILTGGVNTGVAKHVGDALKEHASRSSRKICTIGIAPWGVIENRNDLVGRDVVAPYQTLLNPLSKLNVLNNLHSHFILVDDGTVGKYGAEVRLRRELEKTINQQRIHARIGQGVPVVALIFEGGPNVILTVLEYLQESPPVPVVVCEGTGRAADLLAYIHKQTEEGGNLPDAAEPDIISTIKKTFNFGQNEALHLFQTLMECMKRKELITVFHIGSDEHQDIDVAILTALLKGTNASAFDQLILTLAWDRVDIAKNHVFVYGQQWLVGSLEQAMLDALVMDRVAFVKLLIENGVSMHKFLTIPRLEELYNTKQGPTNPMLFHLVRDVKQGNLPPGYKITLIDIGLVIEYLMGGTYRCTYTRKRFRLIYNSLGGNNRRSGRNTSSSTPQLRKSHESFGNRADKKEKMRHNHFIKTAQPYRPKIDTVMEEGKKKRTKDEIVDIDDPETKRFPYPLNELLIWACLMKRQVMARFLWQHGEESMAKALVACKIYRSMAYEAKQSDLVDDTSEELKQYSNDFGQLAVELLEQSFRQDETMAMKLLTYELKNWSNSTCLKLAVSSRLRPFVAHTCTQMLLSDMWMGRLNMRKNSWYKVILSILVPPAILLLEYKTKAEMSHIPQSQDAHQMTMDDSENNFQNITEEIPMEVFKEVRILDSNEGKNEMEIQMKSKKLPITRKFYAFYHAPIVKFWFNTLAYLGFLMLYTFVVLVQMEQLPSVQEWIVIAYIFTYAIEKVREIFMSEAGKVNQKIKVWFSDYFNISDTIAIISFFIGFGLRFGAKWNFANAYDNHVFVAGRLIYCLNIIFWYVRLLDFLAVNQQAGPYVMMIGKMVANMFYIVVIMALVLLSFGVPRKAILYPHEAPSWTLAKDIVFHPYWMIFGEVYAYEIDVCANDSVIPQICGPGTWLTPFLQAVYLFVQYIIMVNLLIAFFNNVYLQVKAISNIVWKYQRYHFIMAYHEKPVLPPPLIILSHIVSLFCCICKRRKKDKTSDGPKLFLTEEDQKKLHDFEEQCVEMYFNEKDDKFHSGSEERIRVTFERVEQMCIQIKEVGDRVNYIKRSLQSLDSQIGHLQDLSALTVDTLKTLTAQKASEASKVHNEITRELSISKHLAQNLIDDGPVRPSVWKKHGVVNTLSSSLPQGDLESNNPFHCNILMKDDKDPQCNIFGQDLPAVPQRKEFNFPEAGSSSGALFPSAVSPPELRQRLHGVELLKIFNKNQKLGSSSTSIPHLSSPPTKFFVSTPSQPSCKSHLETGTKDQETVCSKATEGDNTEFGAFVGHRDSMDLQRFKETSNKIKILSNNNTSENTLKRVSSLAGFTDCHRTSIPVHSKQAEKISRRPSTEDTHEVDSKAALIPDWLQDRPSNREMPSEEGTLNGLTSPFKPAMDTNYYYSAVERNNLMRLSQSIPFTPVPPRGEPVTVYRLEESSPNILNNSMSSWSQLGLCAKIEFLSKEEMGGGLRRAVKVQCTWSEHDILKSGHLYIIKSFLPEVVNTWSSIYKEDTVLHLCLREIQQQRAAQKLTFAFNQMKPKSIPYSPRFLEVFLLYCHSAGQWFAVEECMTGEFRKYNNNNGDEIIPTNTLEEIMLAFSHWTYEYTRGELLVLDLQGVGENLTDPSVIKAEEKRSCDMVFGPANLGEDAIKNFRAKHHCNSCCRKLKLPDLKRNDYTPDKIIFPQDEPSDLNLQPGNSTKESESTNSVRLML

Row | Activity [1] | Activity [2] | Activity [3] | Activity [4] | SMILES | Activity (HEK293)
1 | inactive | Active | – | – | O=[N+]([O-])c1ccc(SSc2ccc([N+](=O)[O-])cn2)nc1 | –
2 | – | – | Active | Active | CC(=O)N[C@@H](C(=O)O)C(C)(C)SN=O (racemic) | inactive

Reference: ChEMBL document CHEMBL1250444, “Nitric oxide activates TRP channels by cysteine S-nitrosylation” (Nat Chem Biol, 2006)
